In ChEMBL document CHEMBL4196115 (ACS Med Chem Lett, 2018) one finds IP, Activity and Drug uptake(free) data, which are given here for one compound.

The target in experiment [1] is T1, Muscarinic acetylcholine receptor M1 (Mus musculus) (UniProt P12657).
T1 sequence (whole entry): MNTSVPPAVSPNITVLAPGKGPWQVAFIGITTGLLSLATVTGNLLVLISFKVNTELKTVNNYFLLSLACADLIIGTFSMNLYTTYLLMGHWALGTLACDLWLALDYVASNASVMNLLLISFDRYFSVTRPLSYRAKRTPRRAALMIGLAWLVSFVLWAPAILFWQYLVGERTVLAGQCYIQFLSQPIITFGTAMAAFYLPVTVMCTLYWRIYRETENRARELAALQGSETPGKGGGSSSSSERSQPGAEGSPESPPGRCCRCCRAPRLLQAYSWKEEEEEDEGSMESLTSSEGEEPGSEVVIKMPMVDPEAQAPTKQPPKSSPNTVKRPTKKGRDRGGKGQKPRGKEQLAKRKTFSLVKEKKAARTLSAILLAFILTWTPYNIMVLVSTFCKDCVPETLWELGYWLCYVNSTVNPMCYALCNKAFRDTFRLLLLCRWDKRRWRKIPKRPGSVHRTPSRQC
Particulars: CHO.
Description: Positive allosteric modulation of mouse muscarinic acetylcholine receptor M1 expressed in CHO cells assessed as increase in acetylcholine-induced calcium mobilization pretreated for 4 mins followed by acetylcholine addition and measured after 4 mins by Fluo-4-AM dye based FLIPR assay

Experiment [2] has as its target Muscarinic acetylcholine receptor M3 (Homo sapiens) (UniProt P20309). As to the kind of experiment: Agonist activity at human muscarinic acetylcholine receptor M3 expressed in CHO cells. It counts as functional, cell-based.
In experiment [3] the target is T2, Muscarinic acetylcholine receptor M1 (Macaca mulatta) (UniProt P56489).
T2 sequence (whole entry): T1 sequence (whole entry) with V5A, S254T, A265P, E277D, K320R, G337A, V413I
The note with it: CHO.
Description: Positive allosteric modulation of rhesus monkey muscarinic acetylcholine receptor M1 expressed in CHO cells assessed as increase in acetylcholine-induced calcium mobilization pretreated for 4 mins followed by acetylcholine addition and measured after 4 mins by Fluo-4-AM dye based FLIPR assay

In experiment [4] the target is T3, Muscarinic acetylcholine receptor M1 (Rattus norvegicus) (UniProt P08482).
T3 sequence (whole entry): T1 sequence (whole entry) with P309S
Particulars: CHO.
Description: Positive allosteric modulation of rat muscarinic acetylcholine receptor M1 expressed in CHO cells assessed as increase in acetylcholine-induced calcium mobilization pretreated for 4 mins followed by acetylcholine addition and measured after 4 mins by Fluo-4-AM dye based FLIPR assay

Experiment [5] concerns Mus musculus. As to the kind of experiment: Antialzheimer activity in mouse assessed as unbound brain concentration required for reversal of scopolamine-induced emotional memory deficits by measuring increase in freezing at 3 mg/kg, ip measured after 24 hrs by contextual fear conditioning assay. It counts as functional, organism-based.

Where a chain is given by its changes, count along the chain named. The source made the active and inactive calls. No cut-off for these calls is given here.

Sequence of Muscarinic acetylcholine receptor M3 (Homo sapiens) (P20309 whole entry, looked up): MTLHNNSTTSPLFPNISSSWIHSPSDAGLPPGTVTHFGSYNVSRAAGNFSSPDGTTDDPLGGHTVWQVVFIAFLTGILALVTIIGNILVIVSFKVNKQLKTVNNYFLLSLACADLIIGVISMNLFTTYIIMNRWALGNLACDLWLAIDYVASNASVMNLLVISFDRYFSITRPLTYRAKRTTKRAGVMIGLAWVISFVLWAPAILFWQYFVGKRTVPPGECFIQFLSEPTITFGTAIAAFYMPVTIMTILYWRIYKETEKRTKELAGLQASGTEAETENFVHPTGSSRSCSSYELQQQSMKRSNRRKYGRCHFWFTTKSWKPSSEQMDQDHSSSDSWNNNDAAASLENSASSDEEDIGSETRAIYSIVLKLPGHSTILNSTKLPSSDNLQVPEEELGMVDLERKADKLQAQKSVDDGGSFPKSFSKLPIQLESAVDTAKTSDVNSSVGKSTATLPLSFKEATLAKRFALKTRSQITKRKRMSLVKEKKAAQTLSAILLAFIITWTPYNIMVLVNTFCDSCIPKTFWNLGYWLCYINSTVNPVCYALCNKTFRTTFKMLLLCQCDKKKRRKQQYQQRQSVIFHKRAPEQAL

For `Cc1ccc(Cc2cc3c(=O)n([C@H]4CCCC[C@@H]4O)cnc3c3ccccc23)cn1`, the IP in experiment [1] turned out to be 6.7 nM; in experiment [3], 3.8 nM; in experiment [4] it was 14 nM. The result in experiment [2] was inactive. Also, in experiment [5], the Drug uptake(free) stood at 24 nM.
